Among the data in publication PMC5256054 (Iranian Journal of Parasitology, 2016) are IC50 values, retold here.

The test system of assay [1] is P. falciparum 3D7 chloroquine (CQ) sensitive strain. The assay can be described thus: In vitro antiplasmodial test, Giemsa-stained smear parasitemia count. The assay is classed as cell-based. As to conditions: Plasmodium falciparum, 3D7, 24 h, read-out: P. falciparum IC50.
Another assay has as its system P. falciparum strain K1. To be noted: read-out: IC50, P. falciparum strain K1; erythrocytic stages in vitro; ref [8]; cited from earlier work.
Assay [2] has as its system P. falciparum strain NF54. As to conditions: read-out: IC50, P. falciparum strain NF54; erythrocytic stages in vitro; ref [8]; cited from earlier work.

The term IC50 denotes the concentration at which inhibition is half-maximal.

For `CCN(CC)CCCC(C)Nc1ccnc2cc(Cl)ccc12` (stereo not drawn) [CQ, Chloroquine], the IC50 in assay [1] came out at 775 nM. For `COc1cc(C=C2Oc3cc(OC(C)=O)cc(OC(C)=O)c3C2=O)cc(OC)c1OC(C)=O` [4,6,4′-triacetyl-3′,5′-dimethoxy-2-aurone], the 50% inhibitory concentration (IC50) with P. falciparum strain K1 was 7 nM; in assay [2], 180 nM.
